Data as given in US12180169B1, “4-[4,4-bis(4-bromophenyl)-5-oxo-2-thioxoimidazolidin-1-yl]butanoic acid as an antimicrobial compound” (KING FAISAL UNIVERSITY, priority 2023, dated 2024).

Key:
Type in all cases: cell-based
Settings in all cases: after 10, 20, 40 and 60 min at all dilutions 1:100, 1:200, 1:400, 1:800
Staphylococcus aereus = test: Antimicrobial testing by agar dilution, Staphylococcus aereus
Method: (§1) The antimicrobial properties of the 4-[4,4-bis(4-bromophenyl)-2,5-dioxoimidazolidin-1-yl]butanoic acid were studied by the method of agar dilution. Test solutions of each compound was prepared in concentration of 1% using dimethylformamide as a solvent then they are diluted in physiological solution to obtain the final experimental dilutions 1:100, 1:200, 1:400, 1:800. The effect of these substances are compared with furacillin in a controlable study. The testing microbes used were gram positive bacteria Staphylococcus aereus, gram negative bacteria Escherichia coli, Pseudomonas aeruginosa and Candida albicans fungi were taken. The experiments used for this survey were meat-pentonlu agar (EPA) for cultivation of bacteria and Saburo environment for fungi. Each experiment used 1 ml of test solution on each plate 500 min. Add 2 drops of emulsified with microbes feel. All experimental samples were taken from the agar after 10, 20, 40, 60 minutes in the environment on the basis of Patrk planted. Bacteria were cultivated at a temperature of 37° C. for 1 day and the mushroom was kept in a thermostat for […] at a temperature of 28° C. in the. Then results were checked.

Escherichia coli = test: Antimicrobial testing by agar dilution, Escherichia coli
Method: as §1

Pseudomonas aeruginosa = test: Antimicrobial testing by agar dilution, Pseudomonas aeruginosa
Method: as §1

Candida albicans = test: Antimicrobial testing by agar dilution, Candida albicans fungi
Method: as §1

Measured: inhibition activity (summary in words)

O=C(O)CCCN1C(=O)C(c2ccc(Br)cc2)(c2ccc(Br)cc2)NC1=S [4-[4,4-bis(4-bromophenyl)-5-oxo-2-thioxoimidazolidin-1-yl]butanoic acid]
higher inhibition activity: all assays above
